Experimental data published in patent US7771935B2, “Evolving new molecular function” (President and Fellows of Harvard College, priority 2002, dated 2010).

Key:
[1] = Bromide structural and configurational stability under the reaction conditions (MALDI-TOF, chiral HPLC); type: physicochemical; conditions: 16 hours under the reaction conditions; both enantiomers
Taq DNA polymerase [2] = biological target: T1, Taq DNA polymerase (Thermus aquaticus, UniProt P19821); experiment: PCR incorporation of modified nucleotide triphosphates by Taq DNA polymerase; type: biochemical; conditions: 30 PCR cycles; pUC19 template; three natural dNTPs
Experimental: The ability of the modified nucleotide triphosphates containing metal-binding functionality shown in FIG. 75 to be accepted by DNA polymerase enzymes was studied. Synthetic nucleotide triphosphates were purified by ion exchange and reverse-phase HPLC and were added to PCR reactions containing Taq DNA polymerase, three natural deoxynucleotide triphosphates, pUC19 template DNA, and two DNA primers. The primers were chosen to generate PCR products ranging from 50 to 200 base pairs in length. Control PCR reactions contained the four natural deoxynucleotide triphosphates and no non-natural nucleotides.

Vent DNA polymerase = Vent DNA polymerase (Thermococcus litoralis, UniProt P30317, DEL1082-1471/DEL495-1032); conditions: PCR conditions; cited from earlier work
Taq DNA polymerase [3] = biological target: T1, Taq DNA polymerase; conditions: cited from earlier work
chymotrypsin = biological target: T2, chymotrypsin (Bos taurus, UniProt P00766, DEL14-15/DEL147-148); conditions: known binding of the free ligand; cited from earlier work
T2 construct: purchased Sigma

papain = biological target: T3, papain (Carica papaya, UniProt P00784); conditions: known binding of the free ligand; cited from earlier work
T3 construct: purchased Sigma
T3 sequence (P00784 134-345): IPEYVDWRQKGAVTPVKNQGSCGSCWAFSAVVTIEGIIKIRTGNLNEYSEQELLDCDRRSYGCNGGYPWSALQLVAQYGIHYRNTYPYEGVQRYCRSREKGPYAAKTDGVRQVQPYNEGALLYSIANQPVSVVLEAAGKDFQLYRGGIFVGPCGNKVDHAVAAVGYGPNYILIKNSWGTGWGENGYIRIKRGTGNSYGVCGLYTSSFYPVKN

[4] = biological target: glutathione S-transferase (GST); conditions: read-out: Kd of binding to glutathione S-transferase (GST); cited from earlier work

T1 sequence (P19821 whole entry): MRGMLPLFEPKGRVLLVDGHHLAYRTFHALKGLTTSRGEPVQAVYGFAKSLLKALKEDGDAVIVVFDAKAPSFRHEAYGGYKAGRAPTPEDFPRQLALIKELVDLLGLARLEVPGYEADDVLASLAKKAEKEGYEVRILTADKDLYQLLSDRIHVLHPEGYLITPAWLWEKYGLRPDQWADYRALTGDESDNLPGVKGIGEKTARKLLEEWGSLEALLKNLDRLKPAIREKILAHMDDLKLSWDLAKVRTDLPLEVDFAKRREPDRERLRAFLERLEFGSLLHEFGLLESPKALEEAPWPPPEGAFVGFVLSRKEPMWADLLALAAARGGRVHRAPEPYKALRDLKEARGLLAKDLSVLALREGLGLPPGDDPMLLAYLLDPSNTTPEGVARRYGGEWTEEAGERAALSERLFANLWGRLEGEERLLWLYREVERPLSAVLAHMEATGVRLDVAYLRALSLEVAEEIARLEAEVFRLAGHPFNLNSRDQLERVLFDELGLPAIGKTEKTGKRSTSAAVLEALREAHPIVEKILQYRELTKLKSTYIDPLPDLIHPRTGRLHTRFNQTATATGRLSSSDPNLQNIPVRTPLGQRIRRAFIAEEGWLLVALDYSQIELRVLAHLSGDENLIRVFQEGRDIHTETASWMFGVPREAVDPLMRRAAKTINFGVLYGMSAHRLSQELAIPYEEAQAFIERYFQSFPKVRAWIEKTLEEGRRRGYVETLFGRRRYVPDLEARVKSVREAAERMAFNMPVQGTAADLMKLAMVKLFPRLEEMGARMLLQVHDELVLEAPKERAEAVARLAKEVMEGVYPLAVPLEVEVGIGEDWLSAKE
Vent DNA polymerase, sequence (P30317 other isoform, or with tags, fused parts or gaps DEL495-1032/DEL1082-1471): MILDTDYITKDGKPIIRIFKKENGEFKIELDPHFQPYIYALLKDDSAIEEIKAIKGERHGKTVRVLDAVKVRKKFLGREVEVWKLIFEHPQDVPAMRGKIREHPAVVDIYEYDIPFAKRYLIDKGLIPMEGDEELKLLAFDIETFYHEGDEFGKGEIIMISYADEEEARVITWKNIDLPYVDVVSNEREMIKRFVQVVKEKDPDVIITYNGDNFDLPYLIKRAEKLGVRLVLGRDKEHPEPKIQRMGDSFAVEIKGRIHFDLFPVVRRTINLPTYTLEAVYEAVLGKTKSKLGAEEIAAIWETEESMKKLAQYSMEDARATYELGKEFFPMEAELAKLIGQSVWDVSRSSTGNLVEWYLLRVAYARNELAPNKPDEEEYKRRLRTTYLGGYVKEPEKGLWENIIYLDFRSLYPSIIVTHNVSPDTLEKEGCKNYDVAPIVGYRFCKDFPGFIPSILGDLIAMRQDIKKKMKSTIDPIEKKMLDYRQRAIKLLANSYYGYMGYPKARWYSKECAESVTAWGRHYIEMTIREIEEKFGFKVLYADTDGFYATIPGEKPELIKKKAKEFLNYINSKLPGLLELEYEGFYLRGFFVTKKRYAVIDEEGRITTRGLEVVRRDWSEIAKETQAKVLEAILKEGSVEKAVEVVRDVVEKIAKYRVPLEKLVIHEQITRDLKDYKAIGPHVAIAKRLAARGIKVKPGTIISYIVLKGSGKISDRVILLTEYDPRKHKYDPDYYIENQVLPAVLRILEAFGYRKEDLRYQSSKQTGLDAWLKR

Structure (SMILES)	incorporation by Taq DNA polymerase (Taq DNA polymerase [2])	acceptance by Taq DNA polymerase (Taq DNA polymerase [3])	further results
CNC(=O)C(C)Br (racemic) [N-methyl 2-bromopropionamide]	–	–	configurational stability by chiral HPLC [1]: No change in retention time
Cc1nc2c(N)ncnc2n1C1CC(O)C(COP(=O)(O)OP(=O)(O)OP(=O)(O)O)O1 (stereo not drawn) [8-modified adenosine triphosphate 32]	not accepted	–	–
CCc1nc2c(N)ncnc2n1C1CC(O)C(COP(=O)(O)OP(=O)(O)OP(=O)(O)O)O1 (stereo not drawn) [8-modified adenosine triphosphate 33]	not accepted	–	–
CCCC#Cc1cn([C@H]2C[C@H](O)[C@@H](CO)O2)c(=O)[nH]c1=O [analog 1, 5-(1-pentynyl)-deoxyuridine]	–	–	acceptance by Vent DNA polymerase (Vent DNA polymerase): acceptance
NCCCc1cn(C2CC(O)C(CO)O2)c2ncnc(N)c12 (stereo not drawn) [analog 11]	–	acceptance	–
NCC=Cc1cn(C2CC(O)C(CO)O2)c2ncnc(N)c12 (stereo not drawn) [analog 12]	–	acceptance	–
O=C(O)CCCC[C@@H]1SC[C@@H]2NC(=O)N[C@@H]21 [biotin]	–	–	affinity for chymotrypsin (chymotrypsin): no significant affinity
CC(C)C[C@H](NC(=O)[C@@H](NC(=O)N[C@@H](Cc1ccccc1)C(=O)O)[C@@H]1CCN=C(N)N1)C(=O)N[C@H](C=O)Cc1ccccc1 [chymostatin]	–	–	affinity for papain (papain): binds to both proteases; affinity for chymotrypsin (chymotrypsin): binds to both proteases
NC(=O)CNC(=O)[C@H](CS)NC(=O)CC[C@H](N)C(=O)O [glutathione amide]	–	–	Kd [4]: ~10 µM
NCC#Cc1cn([C@H]2C[C@H](O)[C@@H](CO)O2)c2ncnc(N)c12 [uridine analog 13, 7-aminopropynyl-7-deazadeoxyadenosine]	efficiently incorporated	acceptance	–
